Patent publication US20230210807A1, “USE OF BENZOATE COMPOUND IN TREATMENT OF SARS-COV-2 INFECTIONS” (ACADEMY OF MILITARY MEDICAL SCIENCES, priority 2020, published 2023)
Entries after “also recorded” stand apart in the source; their conditions may differ.

Columns and labels:
SARS-CoV-2 = assay: Reduction of viral nucleic acid load in SARS-CoV-2 infected Vero E6 cells (qRT-PCR of supernatant); type: cell-based, SARS-CoV-2 (nCoV-2019BetaCoV/Wuhan/WIV04/2019 strain); settings: for Copy number of virus genome: Vero E6 cells, 100TCID50, 48 hours
Vero-E6 cells = assay: Cytotoxicity test of drugs (CCK-8 kit); settings: 48 hours; for Cell viability (% of vehicle control): Vero-E6 cells
MERS-CoV = settings: in vitro, cited from earlier work

N=C(N)c1ccc2cc(OC(=O)c3ccc(N=C(N)N)cc3)ccc2c1 [Nafamostat, 6-amidino-2-naphthyl-4-guanidino benzoate]
Copy number of virus genome (SARS-CoV-2; 0.14 µM): 1169068894.5±28678551.13 | Copy number of virus genome (SARS-CoV-2; 0.41 µM): 2051893138.5±1115069812.46 | Copy number of virus genome (SARS-CoV-2; 1.23 µM): 2805092897.49±419609425.32 | Copy number of virus genome (SARS-CoV-2; 3.70 µM): 3601892897.5±680084251.56 | Copy number of virus genome (SARS-CoV-2; 11.11 µM): 2116737884±785155013.49 | Copy number of virus genome (SARS-CoV-2; 33.33 µM): 1015568394.5±70116949.22 | Copy number of virus genome (SARS-CoV-2; 100 µM, copies per milliliter per method): 395904281±285024470.56 | Viral RNA load in the cells (in words) (SARS-CoV-2; 48 hours after infection by SARS-CoV-2, Vero E6 cells, FIG. 1(a)): can reduce the viral RNA load | Inhibition of replication of SARS-CoV-2 virus genome in the infected supernatant (in words) (SARS-CoV-2; concentrations of 100 µM, 33 µM, 11.1 µM and 3.7 µM): could effectively inhibit the replication of SARS-CoV-2 virus genome | Cell viability (% of vehicle control) (Vero-E6 cells; 0.14 µM): 103.25±2.53 % of vehicle control | Cell viability (% of vehicle control) (Vero-E6 cells; 0.41 µM): 106.14±1.77 % of vehicle control | Cell viability (% of vehicle control) (Vero-E6 cells; 1.23 µM): 95.85±2.57 % of vehicle control | Cell viability (% of vehicle control) (Vero-E6 cells; 3.70 µM): 94.88±4.44 % of vehicle control | Cell viability (% of vehicle control) (Vero-E6 cells; 11.11 µM): 93.68±1.83 % of vehicle control | Cell viability (% of vehicle control) (Vero-E6 cells; 33.33 µM): 92.64±2.16 % of vehicle control | Cell viability (% of vehicle control) (Vero-E6 cells; 100 µM): 92.65±3.37 % of vehicle control | Cytotoxicity (in words) (Vero-E6 cells; all test concentrations, Vero E6 cells): no cytotoxicity was observed; also recorded: no toxic effect on the cells at all concentrations | IC50 relative to that of Camostat (times higher) (MERS-CoV; versus Camostat): 10 times | IC50 (MERS-CoV; read-out: IC50 (MERS-CoV infection in vitro)): 0.1 µM
